# The NIST ThermoML archive (doi:10.1016/j.fluid.2015.01.026)
# Numbers after ± are expanded uncertainties.
# Conditions: 298.15 K; 101.33 kPa; Liquid; Vibrating tube method
row,SMILES,mass density [kg/m3]
1,CC(=O)c1ccccc1 [acetophenone],1023.05 ± 0.25
2,CCCCCCCCCC [decane],726.347 ± 0.24
3,CCCCCCCCCCCC [dodecane],741.523 ± 0.58
4,CCCCCCCCCCCCCCCC [hexadecane],770.221 ± 0.24
5,CCCCCCCCCCCCCC [tetradecane],759.275 ± 0.24
